This is an account of results in paper PMC9452764, “Pseudomonas syringae pv. tomato infection of tomato plants is mediated by GABA and L‐Pro chemoperception” (Molecular Plant Pathology, 2022).

Each structure is given as a SMILES string. Like-named read-outs stand apart in the source and are kept apart here.

The target in this assay is T1, PsPto‐PscC‐LBD (Pseudomonas syringae group genomosp. 3, UniProt Q883C0).
T1 construct: gene PSPTO_2448; pET28b(+) derivative p2448-LBD, HisTrap purified, E. coli BL21(AI)
Description: isothermal titration calorimetry. Format: binding.

T1 sequence (Q883C0 entry or part of it): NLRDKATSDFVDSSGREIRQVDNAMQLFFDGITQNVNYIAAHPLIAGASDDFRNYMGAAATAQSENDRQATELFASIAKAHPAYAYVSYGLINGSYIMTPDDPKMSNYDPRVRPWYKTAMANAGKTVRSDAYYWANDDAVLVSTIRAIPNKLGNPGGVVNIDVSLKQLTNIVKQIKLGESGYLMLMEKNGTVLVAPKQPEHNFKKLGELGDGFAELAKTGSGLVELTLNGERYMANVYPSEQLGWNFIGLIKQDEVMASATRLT

With `NCCCC(=O)O` [GABA], where the note is “read-out: K D”, the Kd stood at 1.87 ± 0.3 µM.

In turn, `O=C(O)[C@@H]1CCCN1` [L‐Pro] showed a Kd of 4.52 ± 0.4 µM.
